This note sets out measurements from ChEMBL document CHEMBL1147283, “Bullatacin and bullatacinone: two highly potent bioactive acetogenins from Annona bullata” (J Nat Prod, 1989).

Series [1] in a line: Toxicity in brine shrimp. In kind it is organism-based. Particulars: artemia, in vivo.
Series [2] can be described thus: (§1) Cytotoxicity against mouse 9PS cells. Particulars: read-out: ED50 (the source's name). In kind it is functional.
The subject of the next series is HT-29. Nature of the series: Cytotoxicity against human HT-29 cells. It is filed as functional, cell-based.
In a further series the test system is A549. Nature of the series: Cytotoxicity against human A549 cells. As to conditions: for EC50: Homo sapiens, A549, read-out: ED50 (the source's name). In kind it is functional, cell-based.
The nature of series [3]: (§2) Cytotoxicity against human 9KB cells. It is filed as functional.
Series [4] deals with Aphis gossypii. Nature of the series: Pesticidal activity against Aphis gossypii at 100 ppm relative to control. It is filed as functional.
Series [5] deals with Diabrotica undecimpunctata. As to the kind of experiment: Pesticidal activity against Diabrotica undecimpunctata howardi at 6 ppm relative to control. In kind it is functional.
Series [6] has as its system Aphis gossypii. As to the kind of experiment: Pesticidal activity against Aphis gossypii at 400 ppm relative to control. It is filed as functional.
The test system of series [7] is Diabrotica undecimpunctata. As to the kind of experiment: Pesticidal activity against Diabrotica undecimpunctata howardi at 24 ppm relative to control. In kind it is functional.
Series [8] deals with Spodoptera eridania. As to the kind of experiment: Pesticidal activity against Spodoptera eridania at 400 ppm relative to control. It is filed as functional.
Series [9] has as its system Tetranychus urticae. Nature of the series: Pesticidal activity against Tetranychus urticae at 100 ppm relative to control. In kind it is functional.
In series [10] the test system is Tetranychus urticae. As to the kind of experiment: Pesticidal activity against Tetranychus urticae at 10 ppm relative to control. It is filed as functional.
Series [11] has as its system Aedes aegypti. As to the kind of experiment: Pesticidal activity against Aedes aegypti larvae at 1 ppm relative to control. It is filed as functional.
For series [12], the system named is Spodoptera eridania. Nature of the series: Pesticidal activity against Spodoptera eridania at 100 ppm relative to control. In kind it is functional.
Series [13] has as its system Tetranychus urticae. Nature of the series: Pesticidal activity against Tetranychus urticae at 400 ppm relative to control. It is filed as functional.
For series [14], the system named is Aedes aegypti. As to the kind of experiment: Pesticidal activity against Aedes aegypti larvae at 10 ppm relative to control. It is filed as functional.
Series [15] concerns Aphis gossypii. As to the kind of experiment: Pesticidal activity against Aphis gossypii at 10 ppm relative to control. In kind it is functional.
The test system of series [16] is Aedes aegypti. Nature of the series: Pesticidal activity against Aedes aegypti larvae at 0.5 ppm relative to control. It is filed as functional.
The nature of series [17]: Displacement of radiolabeled ligand form protein kinase C at 10 uM.
The species entered for another series is Mus musculus. The series is described as §1. In kind it is functional.
A further series has as its system 9KB. The description is as §2. It is filed as functional.

Values after ≈ are worked out from the molar mass of the structure shown. Active and inactive are the calls of the source. The rule behind the calls is not given here. Bounds are passed on as bounds.

`C=C1C[C@@]23CC[C@H]4[C@@](C)(CCC[C@]4(C)C(=O)O)[C@@H]2CCC1C3` gave an LC50 in series [1] of 0.87 µg/mL (≈ 2.88 µM).

Regarding `CCCCCCCCCC[C@H](OC(C)=O)[C@H]1CC[C@H]([C@H]2CC[C@H]([C@@H](CCCCCCCCCC[C@H](CC3=C[C@H](C)OC3=O)OC(C)=O)OC(C)=O)O2)O1` [BULLATACIN TRIACETATE], the EC50 in series [2] was 0.00389 µg/mL; in the series with HT-29 (Homo sapiens, HT-29, read-out: ED50 (the source's name)), above 0.1 µg/mL; with A549 it was 0.002 µg/mL. In addition, the ED50 in [3] was found to be 6.85 ×10⁻⁷ ug/ml. In series [1], the LC50 came out at 5.7 µg/mL.

As for `CCCCCCCCCC[C@H](OC(C)=O)[C@H]1CC[C@H]([C@H]2CC[C@H]([C@@H](CCCCCCCCCC[C@@H]3C[C@@H](CC(C)=O)C(=O)O3)OC(C)=O)O2)O1` [BULLATACINONE DIACETATE], the EC50 worked out at 0.0422 µg/mL in [2]; 0.028 µg/mL with A549; 0.005 µg/mL in series [3] (Homo sapiens, 9KB, read-out: ED50 (the source's name)). In addition, the ED50 in the series with HT-29 was determined as 1 ×10⁻¹ umol/L. The compound also gave a 50% lethal concentration (LC50) in series [1] above 10 µg/mL.

As to `CCCCCCCCCC[C@H](O)[C@H]1CC[C@H]([C@H]2CC[C@H]([C@H](O)CCCCCCCCCC[C@@H]3CC(CC(C)=O)C(=O)O3)O2)O1` (stereo partly specified) [BULLATACINONE], the EC50 in [2] was 0.00423 µg/mL (≈ 0.00679 µM); in the series on A549, 0.001 µg/mL (≈ 0.00161 µM). In addition, the Activity (in the series with Aphis gossypii [4]; in [5]; in the series with Aphis gossypii [6]; in [7]; in the series with Spodoptera eridania [8]; in the series on Tetranychus urticae [9]) was 0% in each case. The Activity with Tetranychus urticae [10], in the series with Aedes aegypti [11], with Spodoptera eridania [12], in the series with Tetranychus urticae [13], in the series on Aedes aegypti [14] and in the series on Aphis gossypii [15] was 0% each time. In addition, the Activity in the series on Aedes aegypti [16] stood at 0%. For the same compound, the results for the ED50 (in the series on HT-29; in [3]) were 5 ×10⁻¹² ug/ml and below 1 ×10⁻¹² ug/ml, respectively. In series [1], this compound gave an LC50 of 0.003 µg/mL (≈ 0.00482 µM).

The compound `CCCCCCCCCC[C@@H](O)[C@@H]1CC[C@@H]([C@@H]2CC[C@@H]([C@H](O)CCCCCCCCCC(O)CC3=CC(C)OC3=O)O2)O1` (stereo partly specified) [BULLATACIN] showed an Activity in series [17] of 7%.

As to `CCCCCCCCCC[C@H](O)[C@H]1CC[C@H]([C@H]2CC[C@H]([C@H](O)CCCCCCCCCC[C@@H](O)CC3C[C@H](C)OC3=O)O2)O1` (stereo partly specified) [DIHYDROBULLATACIN], the figures for the ED50 in the series with HT-29 and in the series on A549 were 3.33 ×10⁻⁵ ug/ml and below 1 ×10⁻⁶ ug/ml, respectively. This compound displayed an LC50 in series [1] of 0.0145 µg/mL (≈ 0.0232 µM).

Consider `O=C1c2ccccc2-c2c3c(cc4ccnc1c24)OCO3` [LIRIODENINE], for which the outcome in the series filed under Mus musculus and with 9KB was inactive. This compound also returned an LC50 in series [1] of 1.1 µg/mL (≈ 4 µM).
